What was measured:
[1] = system: tubulin (colchicine site); assay: [3H]-colchicine competition for binding tubulin; details: 20 min, 37° C.
Procedure: FIG. 3a-d. […] (a) Effect of stilbene 4a. Pure tubulin was incubated with various concentrations of stilbene 4a, 10 μM nocodazole, and 10 μM paclitaxel in the polymerization buffer. The OD at 340 nm was monitored every minute by SpectraMAX 250 and plotted against time. (b) Effect of stilbene 4c. (c) Comparison of same concentrations of stilbenes 4a, 4a trans, 4c and 4c trans with control. […] The radioactivity of the tubulin was counted. […] All experiments were done in triplicates.
Tubulin retained in the Microcon was washed three times with PBS. The radioactivity of the final concentrated tubulin was determined by a scintillation counter.

[2] = system: c-kit positive marrow progenitor cells; assay: bone marrow c-kit-positive progenitor cells: cell cycle and colony forming assay; type: cell-based
Procedure: FIG. 16. (a) Effect of stilbenes in normal bone marrow progenitor cells. c-kit-positive bone marrow mononuclear cells were isolated for incubation with stilbenes 4a or 4c at 0.1 or 0.5 […] for 16 hours. Cells were harvested for fixation and PI staining. Cell cycle analysis and quantification of the subG0/1 population were analyzed by FACScan flow cytometry. The percentages of the apoptotic population were indicated. Shown are the representatives of two independent experiments. (b) Effect of stilbenes in HL60 cells as positive control. HL60 cells were treated with stilbenes 4a or 4c in the same medium as the positive control. (c) Colony forming assay of the stilbene-treated c-kit-positive cells. A fraction of the cells in (a) were diluted and plated on methylcellulose medium at various densities. Cells were incubated for 14 days and the grossly visible colonies were counted. […] Isolated bone marrow c-kit-positive progenitor cells were incubated with DMSO or stilbenes 4a or 4c at 0.1 or 0.5 μM for 16 hours and injected into tail veins of CD45 congenic mice lethally irradiated with 1200 cGy. Mice were monitored for survival and lineage-specific donor engraftment by flow cytometry analysis of peripheral blood. The percentage of donor cells in T, B, and granulocytic series of the recipients were studied at 7 and 14 weeks after transplantation. Stilbene treated c-Kit progenitor cells had the same percentage as the DMSO treated control in all series.
Mouse bone marrow was harvested from femur and tibia of […], subjected to red blood cell lysis, and labeled with anti-c-kit (3C11; CALTAG Laboratories, Burlingame, Calif.) and streptavidin-conjugated microbeads for MACS separation (Miltenyi Biotech, Auburn, Calif.). The c-kit positive marrow progenitor cells were incubated in Iscove's Modified Eagle's Media supplemented with 30% fetal bovine serum, erythropoietin, stem cell factor and interleukin-3 with or without stilbenes 4a or 4c. The ability of long-term proliferation of the c-kit-positive cells was evaluated with colony forming assay. Cells were first treated with DMSO, stilbenes 4a or 4c for 5 h and a fraction of the cells (4000 cells) were plated in the same enriched culture media with methylcellulose for colony forming assays. The grossly visible colonies were counted after 14 days of incubation.

[3] = system: c-kit-positive progenitor cells (engraftment); assay: bone marrow transplantation of stilbene-treated progenitor cells; type: in vivo, mice; details: cells incubated at 0.1 or 0.5 μM for 16 hours
Procedure: FIG. 16. (a) Effect of stilbenes in normal bone marrow progenitor cells. c-kit-positive bone marrow mononuclear cells were isolated for incubation with stilbenes 4a or 4c at 0.1 or 0.5 […] for 16 hours. Cells were harvested for fixation and PI staining. Cell cycle analysis and quantification of the subG0/1 population were analyzed by FACScan flow cytometry. The percentages of the apoptotic population were indicated. Shown are the representatives of two independent experiments. (b) Effect of stilbenes in HL60 cells as positive control. HL60 cells were treated with stilbenes 4a or 4c in the same medium as the positive control. (c) Colony forming assay of the stilbene-treated c-kit-positive cells. […] Cells were incubated for 14 days and the grossly visible colonies were counted. […] Mice were monitored for survival and lineage-specific donor engraftment by flow cytometry analysis of peripheral blood. […]
C57BL/6J (H2b, CD45.2) mice served as bone marrow donors and were between 6-10 weeks of age. […] Peripheral blood engraftment in recipient mice was assessed by flow cytometry analysis for CD3+ (145-2C11; BD Biosciences, San Jose, Calif.) T-cells, B220+ (RA3-6B2) B-cells, Mac1+ (M1/70.15) monocytes, and Gr1+ (8C5) granulocytes and distinguished between donor versus recipient with anti-CD45.1 (A20) and anti-CD45.2 (104) monoclonal antibodies.

[4] = system: UCI101 cells; assay: phospho-histone 3B mitotic marker staining; type: cell-based
Procedure: (a) In vitro sensitivity of UCI101 cells toward three potential stilbene prodrugs, 5a-c, was tested in 96-well plates using Alamar Blue™ assays to determine cell growth inhibition. […] (b) 5b induces cell cycle change and apoptosis in UCI101 cells. Cells were incubated with 5b at 1, 3, 10 μM for 16 hours followed by PI staining and flow cytometry analysis. A subG0/1 population, representing apoptotic cells, appeared along with a decrease of the G1/G2 ratio after cells were treated with 3 μM 5b. Higher concentration (10 μM) of 5b completely killed cells, as was the case with stilbene 4a at […]. (c) Cells treated with stilbene 4a and 5b were stained with phospho-histone 3B, a mitotic marker. The positive signals of phospho-histone 3B were shown in green and nuclei were stained with DAPI in blue. […] (d) In vivo efficacy of 5b compared with stilbene 4a. Nude mice were injected with UCI101 ovarian cancer cells and treated with 7 doses of 5b,c or stilbene 4a every 2-3 days. Tumor volume was calculated and plotted against days.
The in vitro efficacy of these three compounds was tested in UCI101 cells in 96-well plate format and stained with Alamar blue™, The growth suppression was calculated as was done similarly to other test compounds. […] A dose response was then performed with various concentrations of 5b in vitro. […]

COc1cc(/C=C\c2ccc(OC)c(N)c2)cc(OC)c1 [4a, (Z)-5-[2-(3,5-Dimethoxy-phenyl)-vinyl]-2-methoxy-phenylamine]
competition with [3H]-colchicine for tubulin [1]: dose-dependent suppression of tubulin-colchicine interaction | toxicity to normal bone marrow progenitor cells versus leukemia cells [2]: much less toxic to normal bone marrow progenitor cells | cell cycle of marrow progenitor cells at 0.1 μM ([2]; 0.1 μM, 16 hours): increased the subG0/1 and G2 population slightly | cell cycle of marrow progenitor cells at 0.5 μM ([2]; 0.5 μM, 16 hours): increased the subG0/1 and G2 population slightly | radioprotection of lethally irradiated mice by treated progenitor cells [3]: all mice were rescued from lethal irradiation | phospho-histone 3B positive cells [4]: dramatic increase in positive cells

— US7781580B2, “Stilbene derivatives as new cancer therapeutic agents” (Virginia Commonwealth University, priority 2007, dated 2010)
